Data on 27 molecules can be found in PubChem BioAssay (NCI).

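The compound was tested at five concentrations on cells cultured in 96-well plates, with a 48-hour exposure period. At the TGI there is no net growth.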

What all share (assay): growth of human tumour cells (NCI), 48 h
The test system of test [1] is NCI-H522 lung.
The test system of test [2] is UACC-62 melanoma.
Test [3] has as its system NCI/ADR-RES ovarian.
The subject of test [4] is SF-295 CNS.
Test [5] deals with MDA-MB-435.
In test [6] the test system is HS 578T breast.
In test [7] the test system is HCT-15 colon.
Test [8] has as its system SNB-75 CNS.
In test [9] the test system is 786-0 renal.
Test [10] has as its system NCI-H226 lung.
Test [11] deals with MDA-MB-231 breast.

For the molecule `CC[C@@]1(O)C(=O)OCc2c1cc1n(c2=O)Cc2c-1nc1ccccc1c2/C=N\NC(=O)CN`, the TGI is 35.5 µM in [1]; 0.842 µM in test [2]; more than 76.5 µM in [3]; 6.13 µM in test [4]; 41.5 µM in test [5]; more than 100 µM in test [6]. Also, the TGI in test [7] was more than 100 µM; in [8] it was 6.21 µM; in test [9], 5.7 µM; in test [10] it was 3.54 µM; in test [11], more than 100 µM.
Regarding `NC(=O)C(c1ccccc1)N1OC2C(=O)N(c3ccccc3)C(=O)C2C1c1c2ccccc2c(Cl)c2ccccc12` (centres undefined), the TGI in test [1], in [2], in test [3], in [4], in test [5] and in test [6] was more than 100 µM throughout. In addition, the TGI in test [7], in [8], in test [9], in test [10] and in [11] was more than 100 µM throughout.
For the molecule `O=C(O)CN(CC(=O)O)C1CCCCC1N(CC(=O)O)CC(=O)NCCN=C=S` (centres undefined), the TGI in [1], in test [2], in test [3], in test [4], in test [5] and in test [6] was more than 100 µM throughout. In addition, the TGI in test [7], in test [10] and in [11] was more than 100 µM in each case.
For the molecule `O=C1OCC(O)=C1C(c1ccc(Cl)cc1)c1cc2c(cc1O)OCO2` (centres undefined), the TGI in test [2], in test [3], in [5], in [6], in test [7] and in test [8] was more than 100 µM throughout. Moreover, the TGI in [9], in test [10] and in test [11] was more than 100 µM in each case.
For `C=C(Br)C(C)(Cl)CCC(Br)C(C)(C)Cl` (centres undefined), the TGI in test [1] is more than 100 µM; in test [2], more than 100 µM; in [3], more than 100 µM; in [4], more than 100 µM; in test [5] it was 86.3 µM; in test [6], more than 100 µM. Further, the TGI in test [7] was more than 100 µM; in [9], 39.9 µM; in test [10], 66.2 µM; in test [11], more than 100 µM.
`Clc1cc(OC2C3CC4CC(C3)CC2C4)nc(Cl)n1` (centres undefined): the TGI in test [1] amounted to 27.1 µM; in test [2], 24.7 µM; in test [3], 88.5 µM; in test [4], 37.7 µM; in test [5] it was 37.9 µM; in test [6], 42.9 µM. The TGI in test [7] turned out to be 33.3 µM; in [8], 86.7 µM; in [9], 33.5 µM; in test [11] it was 27.5 µM.
Regarding `O=C(O)c1cccc2c1/C(=N/Nc1ccccc1)CC2`, the TGI in test [1], in [3], in test [4], in test [5], in test [6] and in test [7] was more than 100 µM throughout. The TGI was more than 100 µM in test [9], 98.9 µM in [10] and more than 100 µM in [11].
As for `Cc1cc(=O)[nH]c(NN2C(Cl)C(=O)C2c2ccccc2O)n1` (centres undefined), the TGI in test [2] was more than 46.7 µM; in [3] it was 40.4 µM; in test [4], more than 100 µM; in [5], more than 100 µM; in test [6], more than 100 µM; in test [7] it was more than 100 µM. Besides, the TGI in [8] is more than 76.2 µM; in test [9], more than 100 µM; in test [10] it was 9.16 µM; in [11], more than 100 µM.
For the molecule `Cc1ccc(SCC(CSCCO)OCn2cnc3c2NC(N)=NC32OCCO2)cc1` (centres undefined), the TGI in test [1], in test [3], in [4], in [5], in test [6] and in test [7] was more than 100 µM in each case. Besides, the TGI in test [8], in test [9] and in test [11] was more than 100 µM in each case.
Turning to `O=c1[nH]cc(N=Cc2cc(Cl)cc(Cl)c2O)c(=O)[nH]1`, the TGI is 65.3 µM in [1]; 61.5 µM in test [2]; 47.8 µM in test [3]; 96.1 µM in test [4]; 61.8 µM in [5]; 67.1 µM in test [6]. Also, the TGI in [7] was more than 100 µM; in [9], 62.2 µM; in [10], 62.1 µM; in test [11], more than 100 µM.
As for `CCOC(=O)c1c2ccccc2n2c(N)c(C(N)=O)nnc12`, the TGI in test [1] was more than 100 µM; in [2] it was 81.1 µM; in test [3], more than 100 µM; in test [4], more than 100 µM; in [5], more than 100 µM; in test [6], 35.5 µM. Moreover, the TGI in test [7] is more than 100 µM; in test [8] it was 30.8 µM; in test [9] it was more than 100 µM; in test [11] it was 88.6 µM.
Consider `C=C(C1=CC(=O)C(C)(C)O1)[C@@H]1CC=C([C@@H]2CC[C@H]3[C@@]2(C)CC[C@H]2C(C)(C)C(=O)[C@H](O)C[C@]32C)[C@H](O)O1`, for which the TGI in test [2] was found to be 14.9 µM; in test [3] it was 25.4 µM; in test [4] it was 22 µM; in [5] it was 8.04 µM; in [6], 13.1 µM; in [7], 5.16 µM. Also, the TGI in [8] was determined as 25.1 µM; in test [9] it was 0.79 µM; in test [10], 40.3 µM; in test [11], 4.74 µM.
Take `Cc1cn(C2CC(n3cc(Cn4cc(I)c(=O)[nH]c4=O)nn3)C(CO)O2)c(=O)[nH]c1=O` (centres undefined): the TGI in test [2], in test [3], in [4], in [5], in [6] and in [7] was more than 100 µM throughout. The TGI in [8], in test [10] and in test [11] was more than 100 µM each time.
`Cc1cc(O)c2c(=O)c3ccccc3[nH]c2c1`: the TGI was 16 µM in test [1]; more than 100 µM in test [3]; 51.2 µM in test [4]; more than 100 µM in [5]; 84.6 µM in test [6]; 52.1 µM in test [7]. The TGI in [8] is 93.6 µM; in [9], more than 100 µM; in test [10], 94.3 µM; in test [11] it was more than 100 µM.
`CC1(C)N=C(/C(Cl)=[N+](/[O-])C(=O)c2ccc(F)cc2)C(C)(C)N1O`: the TGI in test [2] was 33 µM; in [3] it was more than 100 µM; in [4], 78.4 µM; in [5] it was 49.3 µM; in test [6] it was 57.1 µM; in test [7], 26.9 µM. The TGI in test [8] came out at 32.7 µM; in [9] it was 27.7 µM; in test [10], 42.2 µM; in test [11], 33.6 µM.
Take `CNC(=O)OCC1=C(COC(=O)NC)C(C)N(c2ccc(OC)cc2)C1` (centres undefined): the TGI in test [2] was 57.3 µM; in test [3] it was more than 100 µM; in [4] it was more than 100 µM; in test [5] it was more than 100 µM; in test [6] it was more than 100 µM; in test [7], more than 100 µM. Also, the TGI in test [8] is more than 100 µM; in test [9] it was more than 100 µM; in test [10], 6.21 µM; in [11], more than 100 µM.
For the molecule `CCOC(=O)N1CCC2(CC1)C[C@](C)(C(C)=O)C(C)O2` (some centres undefined), the TGI in test [1], in test [2], in [3], in test [4], in [5] and in test [6] was more than 100 µM in each case. The TGI in [7], in test [9], in test [10] and in test [11] was more than 100 µM each time.
Regarding `CCOC(=O)Nn1c(C)nnc1-c1ccccc1`, the TGI in test [1], in [2], in [3], in test [4], in [5] and in test [6] was more than 100 µM in each case. In addition, the TGI in test [7], in test [9], in test [10] and in [11] was more than 100 µM throughout.
Take `N=c1n(C(=O)N2CCCC2)c2cc(Cl)ccc2n1C1=NCCN1`: the TGI in test [1], in [2], in test [3], in [4], in test [5] and in test [6] was more than 100 µM in each case. For the same molecule, the TGI in [7], in test [9], in test [10] and in test [11] was more than 100 µM each time.
For `c1ccc(N=C2SC3=Nc4cccc5cccc(c45)N3C2=Nc2ccccc2)cc1`, the TGI in test [1], in [2], in test [3], in [4], in [5] and in test [6] was more than 100 µM each time. For the same molecule, the TGI in test [7], in test [8], in test [10] and in [11] was more than 100 µM each time.
For the molecule `CC1=CC2C(O1)C1C(=O)C=CC(=O)C1=CC2[N+](=O)[O-]` (centres undefined), the TGI in test [2] is 36.2 µM; in test [3] it was more than 77.9 µM; in test [4], 34.5 µM; in test [5] it was 26.4 µM; in [6] it was more than 58 µM; in test [7] it was 39.6 µM. The TGI in test [8] was more than 68.1 µM; in [9], 27.6 µM; in [10], more than 100 µM; in test [11], 38.9 µM.
As to `COC(=O)[C@H](Cc1c[nH]c2ccccc12)NP(=O)(O)OCC1C=CC(n2cc(C)c(=O)[nH]c2=O)O1` (some centres undefined), the TGI in test [2], in test [3], in test [5], in test [6], in [7] and in [8] was more than 100 µM throughout. Besides, the TGI in test [9], in [10] and in test [11] was more than 100 µM each time.
Consider `COc1cc([C@@H]2c3cc4c(cc3[C@@H](Nc3ccc([N+](=O)[O-])cc3C(=O)c3ccccc3)[C@H]3COC(=O)[C@H]23)OCO4)cc(OC)c1OC`, for which the TGI in test [1] is more than 51 µM; in [2], more than 100 µM; in test [3], more than 100 µM; in test [4], more than 100 µM; in test [5] it was 0.319 µM; in test [6], more than 100 µM. The TGI in [8], in test [9] and in test [10] was more than 100 µM in each case.
Turning to `COC(=O)[C@H]1CO[C@@H](C(C)(C)C)N1C(=O)N1C=CC(=O)C[C@@H]1C`, the TGI in [1], in test [2], in test [3], in test [4], in [5] and in test [6] was more than 100 µM in each case. Also, the TGI in test [8], in test [9], in test [10] and in test [11] was more than 100 µM each time.
Consider `C(/c1ccco1)=c1/nc(-c2ccccc2)n2c1nc1ccccc12`, for which the TGI in test [2], in test [3], in test [4], in [5], in test [6] and in test [7] was more than 100 µM in each case. In addition, the TGI in test [9], in test [10] and in [11] was more than 100 µM throughout.
On to `Clc1ccc(/C=C/c2nc3ccccc3s2)cc1Cl`, for which the TGI in test [1] is more than 100 µM; in test [2], more than 100 µM; in [3], more than 100 µM; in test [4], more than 100 µM; in test [5] it was more than 100 µM; in test [6], 80.8 µM. The TGI in test [7] was more than 100 µM; in test [8], 40.9 µM; in [9], 32.1 µM; in test [11] it was more than 100 µM.
On to `Oc1cc2c3c(c1)c1cc4c(cc1c[n+]3CC2)OCO4`, for which the TGI in [1] is 4.38 µM; in test [2], 28.8 µM; in [4], more than 100 µM; in test [5], more than 55 µM; in test [6], 13.6 µM; in test [7] it was more than 100 µM. Moreover, the TGI was 26.3 µM in [8], more than 24.4 µM in test [9], 17.2 µM in [10] and 29.9 µM in test [11].
